Reference: paper PMC6253880, “2-Amido-3-(1H-Indol-3-yl)-N-Substitued-Propanamides as a New Class of Falcipain-2 Inhibitors. 1. Design, Synthesis, Biological Evaluation and Binding Model Studies” (Molecules, 2009)
Read-outs that look alike come from different tables or passages of the source.

Key:
[1] = target: T1, falcipain-2 (FP-2) (Plasmodium falciparum, UniProt Q8I6U4); assay: Enzyme inhibition assay, recombinant FP-2, substrate Z-Leu-Arg-AMC, fluorescence; format: biochemical; settings: for inhibition at 10 µM / Inhibition rate at 10 μM (%): FP-2 30 nM, pH 5.5, 30 min preincubation; for Inhibition rate at 10 μM (%): 10 μM compound
T1 construct: made in house
T1 sequence (Q8I6U4 244-484): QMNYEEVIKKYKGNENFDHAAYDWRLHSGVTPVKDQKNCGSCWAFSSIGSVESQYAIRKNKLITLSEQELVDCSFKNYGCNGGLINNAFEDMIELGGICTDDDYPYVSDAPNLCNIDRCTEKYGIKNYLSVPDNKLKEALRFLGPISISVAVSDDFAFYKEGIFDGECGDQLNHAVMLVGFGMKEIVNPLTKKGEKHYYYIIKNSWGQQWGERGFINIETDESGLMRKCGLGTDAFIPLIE
Description: (§1) For the primary assay, the percent inhibitions of the compounds were measured at 10 μM. […] It is clear that the inhibitory activity of compound 2k was ~3 times higher than that of the lead compound 1, proving the validity of our chemical modifications. The anti-malarial potential of compound 1 in mice was investigated with Plasmodium berghei ANKA using a standard 4-day suppression test.
The purification and refolding of recombinant protein FP-2 was performed as described by Shenai et al. IC50 values against recombinant FP-2 were determined as described previously. FP-2 (30nM) was incubated for 30 min at room temperature in 100 mM sodium acetate, pH 5.5, 10 mM DTT, with different concentrations of tested inhibitors. Inhibitor solutions were prepared from stock in DMSO (maximum concentration of DMSO in the assay was 1%). After 30 min incubation, the substrate Z-Leu-Arg-AMC (benzoxycarbonyl-Leu-Arg-7-amino-4-methylcoumarin, Bachem AG) in the same buffer was added to a final concentration of 25 μM. The increase in fluorescence (excitation at 355 nm and emission at 460 nm) was monitored for 30 min at room temperature with an automated microtiter plate spectrofluorimeter (Molecular Devices, Flex Station). Half-maximal inhibitory concentration (IC50) was determined from plots of percent activity over compound concentration using GraphPad Prism software.

[2] = target: T1, falcipain-2 (FP-2); assay: Surface plasmon resonance-based FP-2/ligand binding assay (Biacore 3000, CM5 chip); settings: SPR, immobilized FP-2, steady state affinity fitting, 25°C, HBS-EP pH 7.4
From the text: Targeting the crystal structure of FP-2 (PDB entry 2GHU), a total of 80,000 compounds were subsequently docked and ranked according to the Glide and GAsDock software. Finally, 81 compounds were purchased and submitted to biological evaluations against FP-2. Because enzymatic assays are time-consuming, surface plasmon resonance (SPR) measurements were used for the primary screening to determine the binding affinity of these 81 candidate molecules to FP-2. […] Among the 81 compounds, the biosensor RU of compound 1 was concentration-dependent. […] Thus, compound 1 could be designated as a binder (or hit) of FP-2.
The purification and refolding of recombinant protein FP-2 was performed as described by Shenai et al. The binding affinity of compound 1 to FP-2 in vitro was determined based on surface plasmon resonance (SPR) technology. The measurement was performed using the dual flow cell Biacore 3000 instrument (Biacore AB, Uppsala, Sweden). Immobilization of FP-2 to the hydrophilic carboxymethylated dextran matrix of the sensor chip CM5 (Biacore) was carried out by the standard primary amine coupling reaction wizard. […] The equilibrium constants (KD values) evaluating the protein–ligand binding affinities were determined by the steady state affinity fitting analysis of the Biacore data.

[3] = test system: Plasmodium berghei ANKA; assay: Standard 4-day suppression test in mice; format: in vivo; settings: 9 mg/kg body weight intragastric daily for 4 days following infection, unpublished data
Description: as §1

[4] = pH 5.5, read-out: Inhibition rate at 10 μM (%), 10 μM compound
[5] = pH 5.5, 10 μM compound, read-out: Inhibition rate at 10 μM (%)

Compound | inhibition at 10 µM [1, 4] [%] | melting point [°C] | also measured
O=C(N[C@H](Cc1c[nH]c2ccccc12)C(=O)NCc1cccs1)Oc1ccccc1 [Compound 2i, (R)-2-Phenoxycarboxamido-3-(1H-indol-3-yl)-N-[(thiophen-2-yl)methyl]-propanamide] | 2.2 | 184 to 186 | 
O=C(NCc1ccccc1)[C@@H](Cc1c[nH]c2ccccc12)NCc1ccccc1 [Compound 2c, (R)-2-Benzylamino-3-(1H-indol-3-yl)-N-benzyl-propanamide] |  | 38 to 40 | inhibition at 10 µM [1, 5]: 13%
O=C(N[C@H](Cc1c[nH]c2ccccc12)C(=O)Nc1ccc(F)cc1)Oc1ccccc1 [Compound 2e, (R)-2-Phenoxycarboxamido-3-(1H-indol-3-yl)-N-(4-fluorophenyl)-propanamide] | 3.1 | 185 to 189 | 
O=C(N[C@H](Cc1c[nH]c2ccccc12)C(=O)Nc1ccccc1)Oc1ccccc1 [Compound 2d, (R)-2-Phenoxycarboxamido-3-(1H-indol-3-yl)-N-phenylpropanamide] | 11.8 | 195 to 197 | 
CCOc1ccc(NC(=O)[C@@H](Cc2c[nH]c3ccccc23)NC(=O)Oc2ccccc2)cc1 [Compound 2f, (R)-2-Phenoxycarboxamido-3-(1H-indol-3-yl)-N-(4-ethoxyphenyl)-propanamide] | 13.6 | 180 to 184 | 
C#CCNC(=O)[C@@H](Cc1c[nH]c2ccccc12)NC(=O)Oc1ccccc1 [Compound 2j, (R)-2-Phenoxycarboxamido-3-(1H-indol-3-yl)-N-(prop-2-yn-1-yl)-propanamide] | 6.6 | 173 to 177 | 
COC(=O)c1ccc(CNC(=O)[C@@H](Cc2c[nH]c3ccccc23)NC(=O)Oc2ccccc2)cc1 [Compound 2l, (R)-2-Phenoxycarboxamido-3-(1H-indol-3-yl)-N-(4-methoxycarbonyl-phenylmethyl)-propanamide] | > 20 |  | IC50 [1]: 13.3 µM; Inhibition rate at 10 μM (%) [1]: 32.9%
O=C(N[C@H](Cc1c[nH]c2ccccc12)C(=O)NCc1ccccc1)Oc1ccccc1 [Compound 1, (R)-2-Phenoxycarboxamido-3-(1H-indol-3-yl)-N-benzylpropanamide] | > 20 |  | Kd [2]: 5.88 µM; IC50 [1]: 29.7 µM; Inhibition rate at 10 μM (%) [1]: 29.4%; reduction in parasitemia relative to normal control [3]: < 50%
O=C(N[C@@H](Cc1c[nH]c2ccccc12)C(=O)NCc1ccccc1)Oc1ccccc1 [Compound 2a, (S)-2-Phenoxycarboxamido-3-(1H-indol-3-yl)-N-benzylpropanamide] | 14.3 |  | 
O=C(N[C@H](Cc1c[nH]c2ccccc12)C(=O)Nc1ccc2c(c1)OCO2)Oc1ccccc1 [Compound 2g, (R)-2-Phenoxycarboxamido-3-(1H-indol-3-yl)-N-(benzo[1,3]dioxol-5-yl)-propanamide] | 3.1 | 186 to 188 | 
O=C(N[C@H](Cc1c[nH]c2ccccc12)C(=O)NCc1ccc([N+](=O)[O-])cc1)Oc1ccccc1 [Compound 2k, (R)-2-Phenoxycarboxamido-3-(1H-indol-3-yl)-N-[(4-nitrophenyl)methyl]-propanamide] |  |  | IC50 [1]: 10 µM; FP-2 inhibitory activity relative to lead compound 1 (fold better) ([1]; ratio of inhibitory activity versus compound 1): ~ 3
O=C(Cc1ccccc1)N[C@H](Cc1c[nH]c2ccccc12)C(=O)NCc1ccccc1 [Compound 2b, (R)-2-(2-Phenylacetamido)-3-(1H-indol-3-yl)-N-benzylpropanamide] |  |  | Inhibition rate at 10 μM (%) [1]: 25.7%; inhibition at 10 µM [1, 5]: > 20%; IC50 ([1]; recombinant FP-2 30 nM, Z-Leu-Arg-AMC 25 μM, pH 5.5, read-out: IC50): 39.4 µM
